According to patent publication US20050148653A1, “Polymaleimide compounds and their medical use” (priority 2001, published 2005):
Read-outs that look alike come from different tables or passages of the source.

What was measured:
[1] = tested on: Chlamydia trachomatis; assay: Chlamydia assay: transient treatment of Chlamydia with maleimides, infection of McCoy cells, iodine-stained inclusions counted; assay type: cell-based; settings: for activity relative to bis maleimide equivalent: chlamydia infection of McCoy cells; for IODINE-STAINED INCLUSIONS/FIELD F1: field 1; for IODINE-STAINED INCLUSIONS/FIELD F2: field 2; for IODINE-STAINED INCLUSIONS/FIELD F3: field 3; for IODINE-STAINED INCLUSIONS/FIELD F4: field 4; for IODINE-STAINED INCLUSIONS/FIELD F5: field 5; for MEAN COUNT/FIELD (iodine-stained inclusions): mean of 5 fields; for TOTAL COUNT/FIELDS (iodine-stained inclusions): sum of 5 fields; for COMMENTS: inclusions seen on entire coverslip: re-examined under low power; for inhibition of the infection of McCoy cells with chlamydia: transient exposure of chlamydia to compound
Procedure: Purified Chlamydia trachomatis (250 μl) was added to 250 μl of each compound concentration and the mixtures incubated at room temperature for 5 minutes. The tubes were then centrifuged (15000 rpm, 15 minutes), the supernatant decanted and the pellet washed serum free MEM (with 0.5 mls). This step was repeated and the resultant pellet resuspended MEM (in 0.5 ml) and inoculated into a confluent shell vial (coverslip) cultures of McCoy cells. The cultures were centrifuged (3000 rpm, 1 hour at 37° C.) and incubated for a further 2 hours prior to being changed onto MEM with 10% foetal calf serum, I μg/rl cycloheximide, 0.5% added glucose, vancomycin, streptomycin and amphoteracin B (Fungizone). The cultures were incubated for 68 hours, fixed in methanol and stained with Lugol's iodine. 3 replicates of each positive control (with and without DMSO) were included, as well as 2 uninoculated cell controls. Each coverslip culture was examined using low power (10×) objective to ensure that inclusions were evenly distributed and 5 high power (×40) fields were selected at random from different areas of the coverslip. Iodine stained inclusions were counted. Where no inclusions were seen on high power, the culture was re-examined under low power. Table 1. Effect of Transient Treatment with maleimides on Chlamydia Infection of McCoy Cell In Vitro. Chlamydia was pre-treated with each of the indicated maleimides for 5 minutes and the compound removed by centrifugation. McCoy cells were then exposed to the compound pre-treated chlamydia for 68 hours and inclusions counted following staining of cells with Lugols iodine.

[2] = tested on: HIV (IHV-1RF); assay: Anti-viral (virucidal) assay: plate-bound HIV treated 10 minutes, C8166 cells added, syncytium score and XTT; assay type: cell-based; settings: for Syncytia score day 5 (quadruplicate wells) / Syncytia score day 6 (quadruplicate wells): C8166 cells; for Mean Optical Readings at 450 nm: XTT cell viability
Procedure: HIV was attached to the surface of 96-well cell culture plates using 100 μl of 50 μg/ml poly-L-lysine hydrobromide (PLL) of molecular weight >300 K for 1 h at RT. The outer wells were left uncoated and filled with 250 μl of PBS to counteract the effects of evaporation. The coated wells were washed twice with PBS and 25 μl of RPMI 1640 medium containing 5×10^3 TCID50 of IHV-1RF was added and incubated for 1 h at RT. The wells were then washed twice with PBS and 25 μl of varying concentrations of the test compounds made up with serum free medium (containing a constant 10% DMSO) were added to the wells in quadruplicate and the plates incubated at 37° C. for 10 minutes. The wells were again washed twice with PBS and 5×10^4 C8166 cells in a volume of 300 μl distributed to each well and the plates incubated for 5 and 6 days respectively. On days 5 and 6 the cells were assessed microscopically for the presence of cytopathic effect (syncytium formation) and recorded. In order to quantify the cytopathic effect, XIT which is metabolised by viable but not dead cells, was added and the absorbance read at 450 nm after […] incubation at 37° C.
An assessment of viral cytopathic effect was made microscopically on days 5 and 6, but the end point of the experiment was on day 6 when the level of virus infection (as determined by cell viability) was quantified by the use of XTT.

[3] = final conc 0.02 (M), working conc 0.04 (M)
[4] = final conc 0.4 (M), working conc 0.8 (M)
[5] = final conc 1 (M), working conc 2 (M), 5 minutes pre-treatment, McCoy cells 68 hours
[6] = final conc 1 (M), working conc 2 (M)

COCCOCCOCCOCCOc1ccc(N2C(=O)C=CC2=O)cc1 [Compound 3, PEG(5) phenyl maleimide]
activity relative to bis maleimide equivalent [1]: less active than its PEG bis (phenyl maleimide) equivalent | IODINE-STAINED INCLUSIONS/FIELD F1 [1, 3]: 12 inclusions/field | IODINE-STAINED INCLUSIONS/FIELD F2 [1, 3]: 24 inclusions/field | IODINE-STAINED INCLUSIONS/FIELD F3 [1, 3]: 9 inclusions/field | IODINE-STAINED INCLUSIONS/FIELD F4 [1, 3]: 29 inclusions/field | IODINE-STAINED INCLUSIONS/FIELD F5 [1, 3]: 22 inclusions/field | MEAN COUNT/FIELD (iodine-stained inclusions) [1, 3]: 19 inclusions/field | TOTAL COUNT/FIELDS (iodine-stained inclusions) [1, 3]: 96 | IODINE-STAINED INCLUSIONS/FIELD F1 [1, 4]: 4 inclusions/field | IODINE-STAINED INCLUSIONS/FIELD F2 [1, 4]: 7 inclusions/field | IODINE-STAINED INCLUSIONS/FIELD F3 [1, 4]: 5 inclusions/field | IODINE-STAINED INCLUSIONS/FIELD F4 [1, 4]: 8 inclusions/field | IODINE-STAINED INCLUSIONS/FIELD F5 [1, 4]: 4 inclusions/field | MEAN COUNT/FIELD (iodine-stained inclusions) [1, 4]: 6 inclusions/field | TOTAL COUNT/FIELDS (iodine-stained inclusions) [1, 4]: 28 | IODINE-STAINED INCLUSIONS/FIELD F1 [1, 5]: 0 inclusions/field | IODINE-STAINED INCLUSIONS/FIELD F2 [1, 6]: 0 inclusions/field | IODINE-STAINED INCLUSIONS/FIELD F3 [1, 6]: 0 inclusions/field | IODINE-STAINED INCLUSIONS/FIELD F4 [1, 6]: 0 inclusions/field | IODINE-STAINED INCLUSIONS/FIELD F5 [1, 6]: 0 inclusions/field | MEAN COUNT/FIELD (iodine-stained inclusions) [1, 6]: 0 inclusions/field | COMMENTS: inclusions seen on entire coverslip [1, 6]: 15 | TOTAL COUNT/FIELDS (iodine-stained inclusions) [1, 6]: 0 | inhibition of the infection of McCoy cells with chlamydia [1]: dose-dependent inhibition | Syncytia score day 5 (quadruplicate wells) ([2]; Conc 0.003 mM): ++++ (50-100% syncytia) | Syncytia score day 6 (quadruplicate wells) ([2]; Conc 0.003 mM, day 6): ++++ (50-100% syncytia) | Mean Optical Readings at 450 nm ([2]; Conc 0.003 mM, day 6): 0.5018 | Syncytia score day 5 (quadruplicate wells) ([2]; Conc 0.01 mM): +++ (25-50% syncytia) | Syncytia score day 6 (quadruplicate wells) ([2]; Conc 0.01 mM, day 6): ++++ (50-100% syncytia) | Mean Optical Readings at 450 nm ([2]; Conc 0.01 mM, day 6): 0.5085 | Syncytia score day 5 (quadruplicate wells) ([2]; Conc 0.03 mM): +++ (25-50% syncytia) | Syncytia score day 6 (quadruplicate wells) ([2]; Conc 0.03 mM, day 6): ++++ (50-100% syncytia) | Mean Optical Readings at 450 nm ([2]; Conc 0.03 mM, day 6): 0.5012 | Syncytia score day 5 (quadruplicate wells) ([2]; Conc 0.1 mM): +++ (25-50% syncytia) | Syncytia score day 6 (quadruplicate wells) ([2]; Conc 0.1 mM, day 6): ++++ (50-100% syncytia) | Mean Optical Readings at 450 nm ([2]; Conc 0.1 mM, day 6): 0.5118 | Syncytia score day 5 (quadruplicate wells) ([2]; Conc 0.3 mM): +++ (25-50% syncytia) | Syncytia score day 6 (quadruplicate wells) ([2]; Conc 0.3 mM, day 6): ++++ (50-100% syncytia) | Mean Optical Readings at 450 nm ([2]; Conc 0.3 mM, day 6): 0.5092 | Syncytia score day 5 (quadruplicate wells) ([2]; Conc 1 mM): +++ (25-50% syncytia) | Syncytia score day 6 (quadruplicate wells) ([2]; Conc 1 mM, day 6): +++ (25-50% syncytia) | Mean Optical Readings at 450 nm ([2]; Conc 1 mM, day 6): 0.5268 | IC50 ([2]; Human immunodeficiency virus 1, C8166, XTT, day 6, virus treated 10 minutes, read-out: IC50 (virucidal)): > 1 mM | virucidal activity ([2]; at concentrations up to 1.0 mM): no virucidal activity

CCN1C(=O)C=CC1=O [Compound 4, Ethyl maleimide]
activity relative to bis maleimide equivalent [1]: less active than its bis maleimide equivalent | IODINE-STAINED INCLUSIONS/FIELD F1 [1, 3]: 1 inclusions/field | IODINE-STAINED INCLUSIONS/FIELD F2 [1, 3]: 11 inclusions/field | IODINE-STAINED INCLUSIONS/FIELD F3 [1, 3]: 6 inclusions/field | IODINE-STAINED INCLUSIONS/FIELD F4 [1, 3]: 4 inclusions/field | IODINE-STAINED INCLUSIONS/FIELD F5 [1, 3]: 2 inclusions/field | MEAN COUNT/FIELD (iodine-stained inclusions) [1, 3]: 5 inclusions/field | TOTAL COUNT/FIELDS (iodine-stained inclusions) [1, 3]: 24 | IODINE-STAINED INCLUSIONS/FIELD F1 [1, 4]: 0 inclusions/field | IODINE-STAINED INCLUSIONS/FIELD F2 [1, 4]: 0 inclusions/field | IODINE-STAINED INCLUSIONS/FIELD F3 [1, 4]: 0 inclusions/field | IODINE-STAINED INCLUSIONS/FIELD F4 [1, 4]: 0 inclusions/field | IODINE-STAINED INCLUSIONS/FIELD F5 [1, 4]: 0 inclusions/field | MEAN COUNT/FIELD (iodine-stained inclusions) [1, 4]: 0 inclusions/field | COMMENTS: inclusions seen on entire coverslip [1, 4]: No | TOTAL COUNT/FIELDS (iodine-stained inclusions) [1, 4]: 0 | IODINE-STAINED INCLUSIONS/FIELD F1 [1, 5]: 0 inclusions/field | IODINE-STAINED INCLUSIONS/FIELD F2 [1, 6]: 0 inclusions/field | IODINE-STAINED INCLUSIONS/FIELD F3 [1, 6]: 0 inclusions/field | IODINE-STAINED INCLUSIONS/FIELD F4 [1, 6]: 0 inclusions/field | IODINE-STAINED INCLUSIONS/FIELD F5 [1, 6]: 0 inclusions/field | MEAN COUNT/FIELD (iodine-stained inclusions) [1, 6]: 0 inclusions/field | COMMENTS: inclusions seen on entire coverslip [1, 6]: No | TOTAL COUNT/FIELDS (iodine-stained inclusions) [1, 6]: 0 | inhibition of the infection of McCoy cells with chlamydia [1]: dose-dependent inhibition | Syncytia score day 5 (quadruplicate wells) ([2]; Conc 0.01 mM): ++++ (50-100% syncytia) | Syncytia score day 6 (quadruplicate wells) ([2]; Conc 0.01 mM, day 6): ++++ (50-100% syncytia) | Mean Optical Readings at 450 nm ([2]; Conc 0.01 mM, day 6): 0.48 | Syncytia score day 5 (quadruplicate wells) ([2]; Conc 0.03 mM): ++++ (50-100% syncytia) | Syncytia score day 6 (quadruplicate wells) ([2]; Conc 0.03 mM, day 6): ++++ (50-100% syncytia) | Mean Optical Readings at 450 nm ([2]; Conc 0.03 mM, day 6): 0.4915 | Syncytia score day 5 (quadruplicate wells) ([2]; Conc 0.1 mM): ++++ (50-100% syncytia) | Syncytia score day 6 (quadruplicate wells) ([2]; Conc 0.1 mM, day 6): ++++ (50-100% syncytia) | Mean Optical Readings at 450 nm ([2]; Conc 0.1 mM, day 6): 0.5048 | Syncytia score day 5 (quadruplicate wells) ([2]; Conc 0.3 mM): ++++ (50-100% syncytia) | Syncytia score day 6 (quadruplicate wells) ([2]; Conc 0.3 mM, day 6): ++++ (50-100% syncytia) | Mean Optical Readings at 450 nm ([2]; Conc 0.3 mM, day 6): 0.502 | Syncytia score day 5 (quadruplicate wells) ([2]; Conc 1 mM): +++ (25-50% syncytia) | Mean Optical Readings at 450 nm ([2]; Conc 1 mM, day 6): 0.5275 | Syncytia score day 5 (quadruplicate wells) ([2]; Conc 3 mM): 0 | Syncytia score day 6 (quadruplicate wells) ([2]; Conc 3 mM, day 6): 0 | Mean Optical Readings at 450 nm ([2]; Conc 3 mM, day 6, No Virus 1.84955, Virus Control 0.5091): 1.6305 | IC50 ([2]; Human immunodeficiency virus 1, C8166, read-out: IC50 (virucidal)): 1.9 mM
